# US20060030616A1, “Anhydride modified cantharidin analogues useful in the treatment of cancer” (priority 1998, published 2006)
# Experiments:
# [1] = system: HT29 cells; experiment: Checkpoint abrogation after 6 Gy radiation, flow cytometry; assay type: cell-based, human; settings: 12 h after drug
# Experimental: (§1) The cells are fixed in 70% ethanol and stored at −20° C. until analysis is performed (1-2 weeks). After fixing, the cells are pelleted and incubated in PBS containing propidium iodide ([…]) and RNase A (200 mg/ml) for at least 30 min at room temperature. The samples (2×10^4 events) are analysed using a Becton Dickson FACScan, fluorescence is collected in fluorescence detector 2 (FL2), filter 575/30 nm band pass. Cell cycle distribution is assessed using Cell Quest software (Becton Dickson).
# (§2) The ability of the protein phosphatase inhibitors to abrogate the G1 or G2 checkpoint of the cell cycle may be determined by cell cycle analysis using flow cytometry. Briefly, asynchronous cell cultures are harvested 18 h after 6 Gy irradiation and/or 12 h incubation with the protein phosphatase inhibitor. Depending upon the p53 status of the cell line, radiation treatment alone will induce arrest in either G1 and/or G2 phase of the cell cycle.
# (§3) If the protein phosphatase inhibitor abrogates the G2 checkpoint then the cells will not arrest in the G2 phase of the cell cycle and the cells will continue through the cell cycle and accumulate in the G1 phase of the cell cycle only. Similarily if the protein phosphatase inhibitors abrogates the G1 checkpoint then the cells will not arrest in the G1 phase of the cell cycle and accumulate in the G2 phase of the cell cycle only. Cell cycle analysis using propidium iodide labelling of DNA has been used extensively in our laboratory to assess the effect of specific anticancer agents that induce S-phase cell cycle arrest and apoptotic cell death (Sakoff, Ackland and Stewart, 1998). Experiments were performed on a Becton Dickinson FACScan and using Cell Quest software.
# (§4) The cells were treated with 6 Gy of radiation and then treated with cantharidin 6 h later. The ability to abrogate cell cycle arrest was assessed is 12 h after the addition of the drugs.
# [2] = system: WiDr cells; experiment: MTT cytotoxicity assay, 72 h; assay type: cell-based, human; settings: p53 mt, read-out: IC50 (mean ± SE) after 72 h continuous exposure
# Experimental: (§5) Cells in a subconfluent phase are transferred to 96-well microtitre plates. L1210 cells are plated at a density of 1000 cells/well in 100 μl medium, while all other cell lines are plated at a density of 2000-25000 cells/well. The cells are left for 24 h prior to treatment to ensure exponential growth has been achieved, 24 h after plating (day 0), 100 μl of phosphatase inhibitor is added to each well, control wells received 100 μl of medium only. Drug exposure time is 72 h (day 3). The effect of phosphatase inhibition is tested in triplicate over a concentration range of […]−1×10^−8 M. Growth inhibitory effects are evaluated using the MTT assay and absorbance read at […]. The IC50 is the drug concentration at which cell growth is 50% inhibited based on the difference of optical density on day 0 and day 3 of drug exposure. Cytotoxicity is evaluated using a spectrophotometric assay which determines the percentage of cell growth following exposure of the cells to various concentrations of the phosphatase inhibitors for a period of 72 hours. The subsequent dose response curve is used to calculate IC50 values (the drug concentration at which cell growth is 50% inhibited).
# (§6) Anti-cancer screening of the protein phosphatase inhibitors is assessed using the MTT assay. This assay determines cell viability by the ability of mitochondrial dehydrogenase to produce formazan crystals from 3-(4,5-dimethylthiazol-2-yl)-2,5-diphenyltetrazolium bromide. The viable cell number/well is directly proportional to the production of formazan, which following solubilization, can be measured spectrophotometrically (540 nm). This technique is also used by the National Cancer Institute to screen for new anticancer agents.
# (§7) As described herein a number of cantharidin analogues have been synthesised and tested for their anticancer activity in nine cancer cell lines using the MTT assay after 72 h exposure. These new analogues are shown in FIG. 2 and have been designated MK-1 through to MK-9.
# [3] = system: HT29 cells; experiment: MTT cytotoxicity assay, 72 h; assay type: cell-based, human; settings: HT29, p53 mt; read-out: IC50 (mean ± SE) after 72 h continuous exposure
# Experimental: as §5, §6, §7
# [4] = system: HCT116 cells; experiment: MTT cytotoxicity assay, 72 h; assay type: cell-based, human; settings: HCT116, p53 wt; read-out: IC50 (mean ± SE) after 72 h continuous exposure
# Experimental: as §5, §6, §7
# [5] = system: ADDP cells; experiment: MTT cytotoxicity assay, 72 h; assay type: cell-based, human; settings: p53 mt, read-out: IC50 (mean ± SE) after 72 h continuous exposure
# Experimental: as §5, §6, §7
# [6] = system: 143B cells; experiment: MTT cytotoxicity assay, 72 h; assay type: cell-based, human; settings: p53 mt, read-out: IC50 (mean ± SE) after 72 h continuous exposure
# Experimental: as §5, §6, §7
# [7] = system: SW480 cells; experiment: MTT cytotoxicity assay, 72 h; assay type: cell-based, human; settings: SW480, p53 mt; read-out: IC50 (mean ± SE) after 72 h continuous exposure
# Experimental: as §5, §6, §7
# [8] = system: HL60 cells; experiment: MTT cytotoxicity assay, 72 h; assay type: cell-based, human; settings: HL60, p53 nul; read-out: IC50 (mean ± SE) after 72 h continuous exposure
# Experimental: as §5, §6, §7
# [9] = system: L1210 cells; experiment: Checkpoint abrogation after 6 Gy radiation, flow cytometry; assay type: cell-based, murine; settings: 12 h after drug
# Experimental: as §1, §2, §3, §4
smiles,measurement,setting,value
O=C1OC(O)C2C3CCC(O3)C12 (stereo not shown) [MK-4],"Cell Cycle Distribution, G1","[1]; HT29, 50 μM, 18 h after 6Gy",28.9 percentage of total
same,"Cell Cycle Distribution, G2 + M","[1]; HT29, 50 μM, 18 h after 6Gy",48.4 percentage of total
same,"Cell Cycle Distribution, S","[1]; HT29, 50 μM, 18 h after 6Gy",16.4 percentage of total
same,"Cell Cycle Distribution, sub G","[1]; HT29, 50 μM, 18 h after 6Gy",6.8 percentage of total
same,"Cell Cycle Distribution, G1","[1]; HT29, 100 μM, 18 h after 6Gy",33.3 percentage of total
same,"Cell Cycle Distribution, G2 + M","[1]; HT29, 100 μM, 18 h after 6Gy",43.3 percentage of total
same,"Cell Cycle Distribution, S","[1]; HT29, 100 μM, 18 h after 6Gy",17.2 percentage of total
same,"Cell Cycle Distribution, sub G","[1]; HT29, 100 μM, 18 h after 6Gy",6.3 percentage of total
same,"Cell Cycle Distribution, G1","[1]; HT29, 250 μM, 18 h after 6Gy",35.2 percentage of total
same,"Cell Cycle Distribution, G2 + M","[1]; HT29, 250 μM, 18 h after 6Gy",36.5 percentage of total
same,"Cell Cycle Distribution, S","[1]; HT29, 250 μM, 18 h after 6Gy",17.3 percentage of total
same,"Cell Cycle Distribution, sub G","[1]; HT29, 250 μM, 18 h after 6Gy",10.3 percentage of total
same,"Cell Cycle Distribution, G1","[1]; HT29, 500 μM, 18 h after 6Gy",39.4 percentage of total
same,"Cell Cycle Distribution, G2 + M","[1]; HT29, 500 μM, 18 h after 6Gy",37.7 percentage of total
same,"Cell Cycle Distribution, S","[1]; HT29, 500 μM, 18 h after 6Gy",19.2 percentage of total
same,"Cell Cycle Distribution, sub G","[1]; HT29, 500 μM, 18 h after 6Gy",3.9 percentage of total
same,Checkpoint remark,"[1]; HT29, 500 μM, 18 h after 6Gy",G2 abrogation
same,Checkpoint abrogation,"[1]; HT29, 6 Gy",abrogation of the G2 checkpoint
same,IC50,[2],15 ± 3 µM
same,IC50,[3],14 µM
same,IC50,[4],78 ± 7 µM
same,IC50,[5],275 ± 56 µM
same,IC50,[6],450 µM
same,IC50,[7],88 ± 5 µM
same,IC50,[8],393 ± 103 µM
same,"Cell Cycle Distribution, G1","[9]; L1210, 50 μM, 18 h after 6Gy",21.2 percentage of total
same,"Cell Cycle Distribution, G2 + M","[9]; L1210, 50 μM, 18 h after 6Gy",50.3 percentage of total
same,"Cell Cycle Distribution, S","[9]; L1210, 50 μM, 18 h after 6Gy",28.5 percentage of total
same,"Cell Cycle Distribution, sub G1","[9]; L1210, 50 μM, 18 h after 6Gy",1.8 percentage of total
same,"Cell Cycle Distribution, G1","[9]; L1210, 100 μM, 18 h after 6Gy",22.0 percentage of total
same,"Cell Cycle Distribution, G2 + M","[9]; L1210, 100 μM, 18 h after 6Gy",49.7 percentage of total
same,"Cell Cycle Distribution, S","[9]; L1210, 100 μM, 18 h after 6Gy",27.4 percentage of total
same,"Cell Cycle Distribution, sub G1","[9]; L1210, 100 μM, 18 h after 6Gy",2.4 percentage of total
same,"Cell Cycle Distribution, G1","[9]; L1210, 250 μM, 18 h after 6Gy",21.2 percentage of total
same,"Cell Cycle Distribution, G2 + M","[9]; L1210, 250 μM, 18 h after 6Gy",52.7 percentage of total
same,"Cell Cycle Distribution, S","[9]; L1210, 250 μM, 18 h after 6Gy",24.6 percentage of total
same,"Cell Cycle Distribution, sub G1","[9]; L1210, 250 μM, 18 h after 6Gy",3.1 percentage of total
same,"Cell Cycle Distribution, G1","[9]; L1210, 500 μM, 18 h after 6Gy",18.2 percentage of total
same,"Cell Cycle Distribution, G2 + M","[9]; L1210, 500 μM, 18 h after 6Gy",61.8 percentage of total
same,"Cell Cycle Distribution, S","[9]; L1210, 500 μM, 18 h after 6Gy",16.0 percentage of total
same,"Cell Cycle Distribution, sub G1","[9]; L1210, 500 μM, 18 h after 6Gy",5.0 percentage of total
same,Checkpoint remark,"[9]; L1210, 500 μM, 18 h after 6Gy",G1 abrogation
same,Checkpoint abrogation,"[9]; L1210, 6 Gy",abrogated G1 arrest
